Key:
[1] = tested on: Split3WJ.2 up_5IB+Split3WJ.2_down_3FAM (trans 3WJ as 1:1 mix); assay: Fluorescence quenching binding assay; details: trans 3WJ Split3WJ.2; two concentration points; FIG. 109
Procedure: This assay will be used to test binding of compounds for RNA three way junction (such as a 38 nt construct). This is a fluorescence quenching assay utilizing FAM as fluorescence tag and Iowa Black as quencher. Tags are attached at the 3′ and 5′ end, respectively. Stable formation of MW upon compound binding would lead to quenching of the FAM fluorescence due to close proximity of the Iowa Black tag. Assay readout: FAM (485-520 nm) Fluorescence Intensity.
(§1) Assay sample buffer used: 10 mM CacoK pH 7.2, 30 mM NaCl. Buffer preparation in Dnase/Rnase Free distilled water (Gibco Life Technologies).
(§2) Tool compounds provided as dry powder are prepared as 50 mM stock solution in 100% d6-DMSO. Stock solutions of 50 mM concentration in d6-DMSO are stored at RT.
Sample plate: Greiner cat #784076, black, 384 (Dilution plate: Greiner REF 781101, PS-Microplate, 384 well, clear). Fluorescence Intensity device: Envision 1040285
Daily fresh (10 ml): 1 ml 100 mM CacoK pH 7.2 and 0.3 ml 1 M NaCl filled up to 10 ml with Dnase/Rnase Free distilled water […]
Calibration of the expected fluorescence signal at various RNA concentrations in either CacoK or NaPO4 buffers was performed first. Experiments in buffers containing salt show distinct fluorescence quenching behavior. […]
The fluorescence quenching experiment was repeated for compounds Ark0000013 and Ark0000014 to measure binding with: […]

[2] = tested on: RNA3WJ_0.0.0_5IB_3FAM (3WJ_0.0.0_5IB_3FAM) RNA three way junction; assay: Thermal shift binding assay; details: RNA3WJ_0.0.0_5IB_3FAM; 1 μM RNA, 8 μM compound, 1% DMSO; 10 mM CacoK pH 7.2, 30 mM NaCl
Excerpt: (§3) Purpose: Test binding of compounds for RNA three way junction (for example, a construct of 38 nt). Thermal shift assay based on established fluorescence quenching assay utilizing FAM as fluorescence tag and Iowa Black as quencher. Tags were attached at the 3′ and 5′ end, respectively. Stable formation of 3WJ upon compound binding would lead to quenching of the FAM fluorescence due to close proximity of the Iowa Black tag. Thermal unfolding leads to increase of fluorescence emission. Assay readout: FAM (465-510 nm) Thermal Shift.
as §1, §2
(§4) Sample plate: Roche, Light Cycler480 Multiwell Plate96, white, REF 04729692001. (Dilution plate: Greiner REF 781101, PS-Microplate, 384 well, clear). Thermal Shift device: Roche, Light Cycler480.
(§5) Daily fresh (10 ml): 1 ml 100 mM CacoK pH 7.2 and 0.3 ml 1 M NaCl filled up to 10 ml with Dnase/Rnase Free distilled water.
(§6) Dilute the RNA 1:10 (final 10 μM) in Assay Buffer.
(§7) Heat up the diluted RNA up to 90° C. for 5 min (sealed Eppendorf Tube).
(§8) Cool down the RNA probe slowly to RT.
(§9) Dilute the compounds to 800 μM in DMSO (Assay: 8 μM).
(§10) 78.4 μL Assay Buffer are pipetted into Greiner REF 781101, PS-Microplate, 384 (each well needed).
(§11) Add 0.8 μL of the RNA-Solution ([…]).
(§12) Add 0.8 μL Compound-Solution ([…]).
(§13) Final concentrations in the sample: 1 μM RNA, 8 μM compound, 1% DMSO
(§14) Pipet 20 μL Sample Solution into Roche, Light Cycler480 Multiwell Plate96, white, REF 04729692001.
(§15) When sample transfer is finished, seal the plate with a clear topseal (part of REF 04729692001).
(§16) Centrifuge the plate with a table-top device to spin down the samples.
(§17) Measure the 96 plate with the LightCycler480 (Channel: 480/510 nm; Temperature: 41-91° C.).
(§18) Analyse measurement-data with the MeltingCurveGenotyping Mode.
(§19) Settings: Acquisition mode: continuous; Ramp rate: 0.1 C.°/sec; Acquisition: 6/C.° Melt Curve Genotyping for All Samples
(§20) Melting curves analysis show melting temperature (Tm) of ˜51° C. Range of RNA concentrations was tested and assay window was determined (conc. range of 0.5-1 μM yields best results). The choice of buffer also affected the Tm. RNA constructs were tested under different buffer conditions (especially in presence of salt) in the thermal shift assay. […] CacoK with 30 mM salt at 1 μM RNA conc. was used to assess compound effects on 3WJ stability. […] These conditions were used for screening test compounds.

RNA3WJ_1.1.0_5IB_3FAM = assay: Thermal shift binding assay; details: 1 μM RNA, 8 μM compound
Excerpt: as §3, §1, §2, §4, §5, §6, §7, §8, §9, §10, §11, §12, §13, §14, §15, §16, §17, §18, §19, §20

RNA3WJ_1.1.1_5IB_3FAM = assay: Thermal shift binding assay; details: 1 μM RNA, 8 μM compound
Excerpt: as §3, §1, §2, §4, §5, §6, §7, §8, §9, §10, §11, §12, §13, §14, §15, §16, §17, §18, §19, §20

RNA3WJ_2.1.0_5IB_3FAM = assay: Thermal shift binding assay; details: 1 μM RNA, 8 μM compound
Excerpt: as §3, §1, §2, §4, §5, §6, §7, §8, §9, §10, §11, §12, §13, §14, §15, §16, §17, §18, §19, §20

RNA3WJ_2.0.0_5IB_3FAM = assay: Thermal shift binding assay; details: 1 μM RNA, 8 μM compound
Excerpt: as §3, §1, §2, §4, §5, §6, §7, §8, §9, §10, §11, §12, §13, §14, §15, §16, §17, §18, §19, §20

CN(CCCN)CCCNC(=O)c1ccc2c(c1)C1c3cc(C(=O)NCCCN(C)CCCN)ccc3C2c2ccc(C(=O)NCCCN(C)CCCN)cc21 [Ark0000013, N^2,N^7,N^15-tris(3-((3-aminopropyl)(methyl)amino)propyl)-9,10-dihydro-9,10-[1,2]benzenoanthracene-2,7,15-tricarboxamide]
Effect in fluorescence quenching assay [1]: significant concentration dependent effect | Melting temp [° C.] + cmpd [2]: 84.1 °C | Temp. Shift [° C.] [2]: 24.2 °C | Melting temp [° C.] + cmpd (RNA3WJ_1.1.0_5IB_3FAM): 85.5 °C | Temp. Shift [° C.] (RNA3WJ_1.1.0_5IB_3FAM): 22.2 °C | Melting temp [° C.] + cmpd (RNA3WJ_1.1.1_5IB_3FAM): 82.9 °C | Temp. Shift [° C.] (RNA3WJ_1.1.1_5IB_3FAM): 20.7 °C | Melting temp [° C.] + cmpd (RNA3WJ_2.1.0_5IB_3FAM): 45.7 °C | Temp. Shift [° C.] (RNA3WJ_2.1.0_5IB_3FAM): 3.8 °C | Melting temp [° C.] + cmpd (RNA3WJ_2.0.0_5IB_3FAM): 84.3 °C | Temp. Shift [° C.] (RNA3WJ_2.0.0_5IB_3FAM): 22.1 °C

NCCCCCCCNC(=O)c1ccc2c(c1)C1c3cc(C(=O)NCCCCCCCN)ccc3C2c2ccc(C(=O)NCCCCCCCN)cc21 [Ark0000014, N^2,N^7,N^15-tris(7-aminoheptyl)-9,10-dihydro-9,10-[1,2]benzenoanthracene-2,7,15-tricarboxamide]
Effect in fluorescence quenching assay [1]: smaller effect on the RNA constructs (Split3WJ_2 shows larger effect) | Melting temp [° C.] + cmpd [2]: 61.5 °C | Temp. Shift [° C.] [2]: 1.6 °C | Melting temp [° C.] + cmpd (RNA3WJ_1.1.0_5IB_3FAM): 65.1 °C | Temp. Shift [° C.] (RNA3WJ_1.1.0_5IB_3FAM): 1.8 °C | Melting temp [° C.] + cmpd (RNA3WJ_1.1.1_5IB_3FAM): 64.3 °C | Temp. Shift [° C.] (RNA3WJ_1.1.1_5IB_3FAM): 2.1 °C | Melting temp [° C.] + cmpd (RNA3WJ_2.1.0_5IB_3FAM): 42.0 °C | Temp. Shift [° C.] (RNA3WJ_2.1.0_5IB_3FAM): 0.1 °C | Melting temp [° C.] + cmpd (RNA3WJ_2.0.0_5IB_3FAM): 64.4 °C | Temp. Shift [° C.] (RNA3WJ_2.0.0_5IB_3FAM): 2.2 °C
